Data set [1] can be described thus: Accelerated flow-device release test of injection molded sheets. It is filed as physicochemical. The method, then:
Injection molded samples (Table 3) were prepared using a Model 45 MINI-JECTOR (Mini-Jector Machinery Corp., Newbury, Ohio). The mold to be used produces test sheets that were 7.5×5 cm and 1 mm thick. The polyethylene used was powdered Quantum Microthene (XU594, 35 mesh). The polymer was mixed with the aplatelet clay or aplatelet nanoclay to provide a final ratio of 2 parts trifluralin to 20 parts polymer (24 gm load for each injection). For the PE, the injector is set up to melt the mixture at 127° C., with the injection nozzle heated to 138° C. Polypropylene is melted and injected at 163° C.
These sheets were washed in 90% MeOH to remove surface TFN contamination and placed into a flow device that exposes the sample to water that contains 0.01% Tween 20 and 0.5% MeOH. The system is operated at room temperature (ca. 23° C.). These conditions are used as an accelerated test in which 24 hours represents 2-3 years of exposure in the environment. During the first few hours, the release rate is high, usually over 100 μg/cm^2/day.

Data set [2] in a line: Accelerated flow-device release test of extruded/spun fibers. It is filed as physicochemical. Conditions: trifluralin/nanoclay/polypropylene fiber material, water with 0.01% Tween 20, ca. 23° C. The method, then:
For extrusion and spinning of fibers, the trifluralin-loaded nanoclay is prepared from batches containing 3500 grams of trifluralin and 5476 grams of the nanoclay by the method described in Example 1. The particle size requirement is that the sample pass through a #60 U.S. Sieve (<250 microns). The loading of the trifuralin/nanoclay/polypropylene fiber material in a polyester matrix that is adjusted to provide between 4 and 8% TFN (w/w) for the first fiber run, and 3% TFN (w/w) for the second test run. Pelletized PP material is used for the extrusion and spinning of fibers.
These samples are placed in a flow device that exposed the sample to water that contains 0.01% Tween 20. It is operated at room temperature (ca. 23° C.). These conditions are used as an accelerated test in which 24 hours represents 2 or 3 years of exposure in the environment. This correlation is based on the slope of Arrenhius plots over a temperature range of 10° C. to 50° C. similar systems. During the first few hours, the release rate is high, usually over 100 μg/cm^2/day. The test is continued until the release rate reaches the steady state.

As to `CCCN(CCC)c1c([N+](=O)[O-])cc(C(F)(F)F)cc1[N+](=O)[O-]` [trifluralin, Trifluralin], the “release rate during the first few hours” value is recorded as “over 100 μg/cm^2/day” in data set [1] (injection molded polymer sheets with trifluralin-loaded aplatelet clay or nanoclay, water with 0.01% Tween 20 and 0.5% MeOH, ca. 23° C., first few hours); “over 100 μg/cm^2/day” in data set [2]. For the same molecule, in data set [1] (polypropylene matrix versus standard polyethylene), the “rate of trifluralin release from polypropylene relative to standard polyethylene” value is ≥ 2%.

(Values after US20160057994A1, “Aplatelet Clays for Sustained Release of Active Ingredients” (BioGuard Research and Development, Inc., priority 2013, published 2016).)
